In US20070275935A1, “Estratriene Derivatives” (priority 2003, published 2007):

Legend:
[1] = tested on: type II airway epithelial cell line, A549; experiment: Proliferation of A549 cells in response to 5% FCS; format: cell-based, human; conditions: for effect on proliferation of A549 cells, in words (FIG. 2): 5% FCS, 48 h; for A549 PIC50 / IC50: proliferation in response to 5% FCS, pIC50 of 4.00 = inactive; for IC50: Homo sapiens, A549, read-out: A549 PIC50 (converted)
Pulmonary fibroblasts = experiment: bFGF-induced proliferation of human pulmonary fibroblasts; format: cell-based; conditions: for pFib - bFGF: inhibition of bFGF (300 pM)-induced proliferation, mean and SEM, minimum 3 experiments, 1 μM, * not defined; for effect on bFGF-induced increase in pulmonary fibroblast cell number, in words: concentration range of 1 to 1000 nM, bFGF 300 pM, 48 h
Experimental: Samples of parenchyma from human lung transplant recipients were dissected away from the pleura, chopped into fragments of less than 1 mm^2 and allowed to adhere to plastic culture dishes in a minimal volume of DMEM containing serum (10%) and antibiotics (as used for HASM culture). After the tissue fragments had adhered to the base of the dish additional medium was added. Medium was changed twice weekly until an explant culture formed, at which time the tissue fragments were removed and the cells were passaged in a 1:3 split ratio by exposure to trypsin weekly to produce pulmonary fibroblast cultures.
Pulmonary fibroblasts were cultured in DMEM, serum-deprived for 24 h, in the presence or absence of the test compounds, and then stimulated with 300 pM bFGF for 48 h before harvest and counting of viable cells. An increase pulmonary fibroblast cell number was prevented by 4NOM over the concentration range of 1 to 1000 nM.
A range of the disclosed compounds was subsequently examined using the above assay system, and the results are summarized in Column E of Table 4. […] The proliferation of parenchymal fibroblasts is important in the development of pulmonary fibrosis.

[2] = tested on: Human airway smooth muscle (HASM) cells; experiment: Thrombin-induced proliferation of human airway smooth muscle (HASM) cells, cell number after 48 h; format: cell-based; conditions: for Cell number (% control) Thrombin (0.3 U/ml): 30 min pre-incubation, mean ± SEM (n), without analogue 133.5 ± 4.1; for Cell number (% control) Thrombin (0.3 U/ml) / inhibition of thrombin-mediated HASM proliferation, in words (FIG. 1): 48 h; for HASM-Thr pIC50 / IC50: negative log of the concentration that reduces the thrombin-induced proliferative response by 50%, pIC50 of 4.00 = inactive; for HASM- Thr pIC25 / HASM- Thr pIC75: two site model, thrombin-induced proliferation; for HASM- Thr pIC25: first phase (inhibition up to 50%); for HASM- Thr pIC75: second phase (inhibition up to 100%); for inhibition of thrombin-mediated HASM proliferation, in words (FIG. 1): thrombin 0.3 U/ml; for IC50: Homo sapiens, read-out: HASM-Thr pIC50 (converted)
Method in brief: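 Primary human bronchial smooth muscle cells seeded at 1.5×10^4 cells/cm², serum-starved 24 h, pre-incubated with compound 30 min, then stimulated 48 h with thrombin 0.3 U/ml. Cells counted by haemocytometer with trypan blue; pIC50 as negative log concentration halving proliferative response.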

Structure (SMILES) | effect on proliferation of A549 cells, in words (FIG. 2) ([1]; concentration not given) | A549 PIC50 [1] | pFib - bFGF (Pulmonary fibroblasts) | Cell number (% control) Thrombin (0.3 U/ml) ([2]; analogue 10 μM) | HASM-Thr pIC50 [2] | HASM- Thr pIC25 [2] | HASM- Thr pIC75 [2] | effect on proliferation of A549 cells, in words (FIG. 2) ([1]; concentrations below 3 μM) | effect on bFGF-induced increase in pulmonary fibroblast cell number, in words (Pulmonary fibroblasts) | Cell number (% control) Thrombin (0.3 U/ml) ([2]; analogue 1 μM) | inhibition of thrombin-mediated HASM proliferation, in words (FIG. 1) [2] | pFib - bFGF (Pulmonary fibroblasts; listed as 4NOM) | IC50 [1] [µM] | IC50 [2] [µM]
COc1cc2c(cc1O)CC[C@@H]1[C@@H]2CC[C@]2(C)[C@@H](O)CC[C@@H]12 [2-methoxyestradiol, reference compound] | effective inhibitor | 6.00 | 62 ± 20* | 100.9 ± 8.1 (13) % control | 5.49 | 5.94 | 4.98 | – | – | – | – | – | – | –
COc1cc2c(cc1O)C(=NOCc1ccc([N+](=O)[O-])cc1)C[C@@H]1[C@@H]2CC[C@]2(C)[C@@H](O)CC[C@@H]12 [CP-DM-2-11-7, 2-methoxy-6-(4-nitrobenzyloxy)iminoestradiol] | – | 4.89 | 63 ± 15* | – | 6.90 | 8.82 | 5.66 | no detectable effect | significantly reduced the proliferative response | 111.1 ± 6.9 (13) % control | inhibitory activity on proliferation of HASM cells over a wide concentration range (10 nM to 10 μM) | – | – | –
COc1cc2c(cc1O)C(=NOCc1ccc([N+](=O)[O-])cc1)C[C@@H]1[C@@H]2CC[C@]2(C)C(=NO)CC[C@@H]12 [CP-DM-3-91, 2-methoxy-6-(4-nitrobenzyloxy)iminoestrone-17-oxime] | – | 4.99 | 49 ± 14* | – | 7.59 | 10.32 | 5.70 | – | prevented | 117.5 ± 8.5 (8) % control | considerably more potent than either 2MEO or 4NO | significant inhibitory activity | – | –
C[C@]12CC[C@@H]3c4ccc(O)cc4CC[C@H]3[C@@H]1CC/C2=N\OCc1cccc([N+](=O)[O-])c1 [CP-DM-3-102, estrone-17-(3-nitrobenzyl)oxime] | – | – | 96 ± 4* | – | – | 8.03 | 5.99 | – | – | – | – | – | 12.6 | 0.0891
COc1cc2c(cc1O)/C(=N/OCc1cc(F)cc(F)c1)C[C@@H]1[C@@H]2CC[C@]2(C)[C@@H](O)CC[C@@H]12 [CP-DM-4-35, 6-(3,5-difluorobenzyloxy)imino-2-methoxyestradiol] | – | – | 22 ± 14 | – | – | 7.80 | 5.75 | – | – | – | – | – | 3.16 | 0.141
COc1cc2c(cc1O)/C(=N/OCc1ccc(SC(F)(F)F)cc1)C[C@@H]1[C@@H]2CC[C@]2(C)[C@@H](O)CC[C@@H]12 [CP-DM-4-65, 2-methoxy-6-(4-trifluoromethylthiobenzyloxy)iminoestradiol] | – | – | 32 ± 23 | – | – | – | – | – | – | – | – | – | 3.16 | 0.224
